Measured values reported in US20180168208A1 (priority 2014, published 2018).
Where two headings read alike, the source gives them in different places.

Columns and labels:
Experiment in all cases: cell-based
T1R1/T1R3 receptor [1] = molecular target: T1, T1R1/T1R3 receptor (Felis catus, UniProt E3UMS2); details: for Activity: overall call: active or N/A (not active) on T1R1/T1R3
From the text: (§1) HEK293 cells that stably express T1R3 and inducibly express T1R1 were exposed to nucleotide derivatives alone to activate the umami receptor. Activation of the T1R1/T1R3 receptor was detected by a change in intracellular calcium levels using a calcium sensitive fluorescent dye. Cells that express T1R3 but not T1R1 were used as a control. A FLIPR® Tetra or a FlexStation® 3 was used for data capture.
as §1, with “alone or in combination with one or more amino acids and/or one or more nucleotides” for “alone”, “dye and/or a luminescent reporter system.” for “dye.”
as §1, with “transmembrane compounds” for “nucleotide derivatives”, “alone or in combination with one or more amino acids and/or one or more nucleotides” for “alone”
(§2) In each experiment, serial dilutions of up to 10 mM of the transmembrane compound were added to the T1R1/T1R3-expressing cells.

cat T1R1/T1R3 receptor = molecular target: T2, cat T1R1/T1R3 receptor (Felis catus, UniProt A0ABI7Z2I4)
T2 sequence (A0ABI7Z2I4 171-420): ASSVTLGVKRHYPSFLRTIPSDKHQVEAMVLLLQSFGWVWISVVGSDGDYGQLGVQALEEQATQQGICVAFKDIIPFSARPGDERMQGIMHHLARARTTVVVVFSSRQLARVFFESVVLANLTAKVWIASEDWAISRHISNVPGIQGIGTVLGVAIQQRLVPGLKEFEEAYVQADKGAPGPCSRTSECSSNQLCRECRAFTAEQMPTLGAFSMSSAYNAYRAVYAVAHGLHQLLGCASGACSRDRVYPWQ
T2 sequence (Q49KI5 25-865 E206Q/N523D/F654L partner): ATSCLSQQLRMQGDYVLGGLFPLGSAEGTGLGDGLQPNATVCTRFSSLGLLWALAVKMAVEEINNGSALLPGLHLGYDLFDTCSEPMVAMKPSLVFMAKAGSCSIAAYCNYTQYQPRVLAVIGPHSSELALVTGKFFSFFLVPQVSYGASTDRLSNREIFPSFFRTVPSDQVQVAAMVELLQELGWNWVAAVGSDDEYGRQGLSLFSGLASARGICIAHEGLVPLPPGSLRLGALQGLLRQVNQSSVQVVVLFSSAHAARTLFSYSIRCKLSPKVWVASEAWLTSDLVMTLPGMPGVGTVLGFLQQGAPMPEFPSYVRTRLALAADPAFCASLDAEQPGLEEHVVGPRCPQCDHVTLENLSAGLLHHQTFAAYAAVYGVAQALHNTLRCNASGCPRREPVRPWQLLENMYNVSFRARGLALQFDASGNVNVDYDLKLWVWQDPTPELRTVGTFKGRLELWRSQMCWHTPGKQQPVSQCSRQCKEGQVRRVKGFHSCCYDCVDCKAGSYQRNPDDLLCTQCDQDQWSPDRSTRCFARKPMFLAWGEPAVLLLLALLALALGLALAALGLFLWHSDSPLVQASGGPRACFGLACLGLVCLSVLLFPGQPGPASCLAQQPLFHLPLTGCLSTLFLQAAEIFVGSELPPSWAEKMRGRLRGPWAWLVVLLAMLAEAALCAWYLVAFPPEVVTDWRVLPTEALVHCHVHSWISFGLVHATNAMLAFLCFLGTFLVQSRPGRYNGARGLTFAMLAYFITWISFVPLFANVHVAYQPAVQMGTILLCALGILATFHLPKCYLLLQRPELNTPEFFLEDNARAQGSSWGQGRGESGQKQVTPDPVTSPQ
From the text: as §1, with “alone or in combination with one or more amino acids and/or one or more nucleotides” for “alone”, “dye and/or a luminescent reporter system.” for “dye.”

T1R1/T1R3 receptor [2] = molecular target: T1, T1R1/T1R3 receptor; type: cell-based
From the text: as §1, with “transmembrane compounds” for “nucleotide derivatives”, “alone or in combination with one or more amino acids and/or one or more nucleotides” for “alone”
as §2

[3] = EC50 (mM), +IMP (0.2 mM), in the presence of 0.2 mM IMP
[4] = T1R1/T1R3 EC50 +0.2 mM IMP, +0.2 mM IMP
[5] = T1R1/T1R3 EC50 +20 mM L-alanine + 0.2 mM IMP, +20 mM L-alanine + 0.2 mM IMP
[6] = in the presence of 0.2 mM IMP, relative to alanine
[7] = threshold concentration in the presence of 0.2 mM IMP
[8] = alone in buffer, read-out: T1R1/T1R3 EC50 alone in buffer
[9] = compound alone in buffer, read-out: EC50 (mM), +buffer (alone)
[10] = EC50 (mM), +Alanine (20 mM) + IMP (0.2 mM), in the presence of 20 mM alanine and 0.2 mM IMP
[11] = EC50 (effect with 0.2 mM IMP), control compounds, with 0.2 mM IMP, Table 25
[12] = EC50 (effect with 0.2 mM IMP), positive controls measured with 0.2 mM IMP
[13] = T1R1/T1R3 EC50 +20 mM L-alanine, +20 mM L-alanine

Row | SMILES | Max resp % of IMP, +Alanine (20 mM) (T1R1/T1R3 receptor [1]) | EC50 (T1R1/T1R3 receptor [1]; [3]) | Max resp % of Ala, +IMP (0.2 mM) (T1R1/T1R3 receptor [1]; [6]) | Thres (mM), +Alanine (20 mM) (T1R1/T1R3 receptor [1]) | Thres (mM), +IMP (0.2 mM) (T1R1/T1R3 receptor [1]; [7]) | EC50 (T1R1/T1R3 receptor [1]; [11]) | EC50 (T1R1/T1R3 receptor [2]; [12]) | EC50 (cat T1R1/T1R3 receptor; read-out: EC50) | also measured
1 | CC(=O)Nc1ccc(C(=O)Nc2cc(-c3ccccc3)nn2CCO)cc1 [4-acetamido-N-(1-(2-hydroxyethyl)-3-phenyl-1H-pyrazol-5-yl)benzamide] | 1.8% | > 1 mM | 58.8% | – | – | – | – | – | EC50 (T1R1/T1R3 receptor [1]; [4]): > 0.1 mM; EC50 (T1R1/T1R3 receptor [1]; [5]): > 0.1 mM
2 | CCCCc1nn(CC(=O)N2CCCC2)c(=O)n1Cc1ccccc1 [4-benzyl-3-butyl-1-(2-oxo-2-(pyrrolidin-1-yl)ethyl)-1H-1,2,4-triazol-5(4H)-one] | 129.9% | – | 193.2% | 0.3 mM | 0.1 mM | – | – | – | EC50 (T1R1/T1R3 receptor [1]; [4]): > 0.3 mM; EC50 (T1R1/T1R3 receptor [1]; [5]): > 0.3 mM
3 | O=P(O)(O)OP(=O)(O)OP(=O)(O)OC[C@H]1O[C@@H](n2cnc3c(Cl)ncnc32)[C@H](O)[C@@H]1O [6-Chloropurine riboside-5′-O-triphosphate] | 50.4% | – | 30.2% | 0.01 mM | 0.003 mM | – | – | – | EC50 (T1R1/T1R3 receptor [1]; [8]): > 0.03 mM; EC50 (T1R1/T1R3 receptor [1]; [9]): > 0.3 mM; Activity (T1R1/T1R3 receptor [1]): active; EC50 (T1R1/T1R3 receptor [1]; read-out: EC50 (mM), +Alanine (20 mM)): > 0.3 mM; EC50 (T1R1/T1R3 receptor [1]; read-out: EC50 (mM), +Alanine (20 mM) + IMP (0.2 mM)): > 0.3 mM; EC50 (T1R1/T1R3 receptor [1]; read-out: EC50 (mM), +IMP (0.2 mM), in the presence of 0.2 mM IMP): > 0.3 mM; EC50 (T1R1/T1R3 receptor [1]; read-out: T1R1/T1R3 EC50 +0.2 mM IMP, +0.2 mM IMP): > 0.03 mM; EC50 (T1R1/T1R3 receptor [1]; read-out: T1R1/T1R3 EC50 +20 mM L-alanine): > 0.03 mM; EC50 (T1R1/T1R3 receptor [1]; read-out: T1R1/T1R3 EC50 +20 mM L-alanine + 0.2 mM IMP): > 0.03 mM; EC50 (cat T1R1/T1R3 receptor): > 30 µM; Threshold (cat T1R1/T1R3 receptor): 0.01 mM
4 | Nc1nc2c(ncn2[C@@H]2O[C@H](COP(=O)(O)OP(=O)(O)O)[C@@H](O)[C@H]2O)c(=S)[nH]1 [6-Thioguanosine-5′-O-diphosphate] | 152.8% | – | 9.3% | 0.03 mM | – | – | – | – | EC50 (T1R1/T1R3 receptor [1]; [10]): 0.28 mM; Max resp ΔF/F, +IMP (0.2 mM) (T1R1/T1R3 receptor [1]; in the presence of 0.2 mM IMP): 0.0720 ΔF/F
5 | Nc1nc2c(ncn2[C@@H]2O[C@H](COP(=O)(O)O)[C@@H](O)[C@H]2O)c(=O)[nH]1 [GMP, guanosine monophosphate, reference compound] | – | – | – | – | – | 0.09 ± 0.02 mM | 50 ± 4 µM | – | EC50 (cat T1R1/T1R3 receptor): 20 µM; Threshold (cat T1R1/T1R3 receptor): 0.008 mM; EC50 (T1R1/T1R3 receptor [2]): 50 ± 20 µM; EC50 (T1R1/T1R3 receptor [2]; alone in buffer, read-out: EC50 - alone): 40 ± 10 µM
6 | N[C@@H](CS)C(=O)O [L-Cysteine, cysteine] | – | 43.9 mM | 74.6% | – | 10.0 mM | 43.9 ± 5.6 mM | 39500 ± 1900 µM | 39500 ± 1900 µM | Max resp ΔF/F, +IMP (0.2 mM) (T1R1/T1R3 receptor [1]; in the presence of 0.2 mM IMP): 0.5800 ΔF/F
7 | N[C@@H](Cc1c[nH]cn1)C(=O)O [L-Histidine, L-histidine] | – | 15.3 mM | 36.3% | – | 10.0 mM | 15.3 ± 3.2 mM | 10200 ± 1700 µM | 10200 ± 1700 µM | –
8 | CSCC[C@H](N)C(=O)O [L-Methionine, methionine] | – | – | – | – | – | – | 25500 ± 3700 µM | – | Max resp % of Ala, +IMP (0.2 mM) (T1R1/T1R3 receptor [1]): 45.0%; Thres (mM), +IMP (0.2 mM) (T1R1/T1R3 receptor [1]): 30.0 mM; EC50 (T1R1/T1R3 receptor [1]; EC50 (effect with 0.2 mM IMP)): 33.9 ± 1.5 mM; EC50 (T1R1/T1R3 receptor [1]; EC50 (mM), +IMP (0.2 mM)): 33.9 mM; EC50 (cat T1R1/T1R3 receptor): 25500 ± 3700 µM
9 | N[C@@H](Cc1ccccc1)C(=O)O [L-Phenylalanine, reference compound] | – | 0.5 mM | 75.9% | – | 0.1 mM | 0.5 ± 0.1 mM | 1900 ± 100 µM | 1900 ± 100 µM | Max resp ΔF/F, +IMP (0.2 mM) (T1R1/T1R3 receptor [1]; in the presence of 0.2 mM IMP): 0.5900 ΔF/F
10 | N[C@@H](CO)C(=O)O [L-Serine, serine] | – | 15.1 mM | 100.0% | – | 3.0 mM | 15.1 ± 2.3 mM | 31500 ± 2300 µM | 31500 ± 2300 µM | –
11 | N[C@@H](Cc1c[nH]c2ccccc12)C(=O)O [L-Tryptophan, tryptophan] | – | 0.5 mM | 86.8% | – | 0.1 mM | 0.5 ± 0.1 mM | 900 ± 100 µM | 900 ± 100 µM | –
12 | N[C@@H](Cc1ccc(O)cc1)C(=O)O [L-Tyrosine, tyrosine] | – | 9.3 mM | 38.0% | – | 3.0 mM | 9.3 ± 1.7 mM | – | 10300 ± 900 µM | –
13 | O=C(NCCCCNC(=O)c1cccnc1)c1cccnc1 [N,N′-(butane-1,4-diyl)dinicotinamide] | 9.5% | – | 49.2% | 1.0 mM | 0.1 mM | – | – | – | –
14 | O=C(NCCc1ccccc1)c1ccccc1 [N-phenethylbenzamide] | 20.4% | 0.12 mM | 126.0% | 0.6 mM | 0.01 mM | – | – | – | EC50 (T1R1/T1R3 receptor [1]; [10]): 0.09 mM; EC50 (T1R1/T1R3 receptor [1]; EC50 (mM), +Alanine (20 mM), in the presence of 20 mM alanine): > 1 mM; EC50 (T1R1/T1R3 receptor [1]; [4]): 0.12 ± 0.03 mM; EC50 (T1R1/T1R3 receptor [1]; [13]): > 1 mM; EC50 (T1R1/T1R3 receptor [1]; [8]): 0.33 ± 0.01 mM; EC50 (T1R1/T1R3 receptor [1]; [9]): 0.33 mM; Max resp ΔF/F, +IMP (0.2 mM) (T1R1/T1R3 receptor [1]; in the presence of 0.2 mM IMP): 0.9800 ΔF/F
15 | O=C(NCCc1ccccc1)c1ccc2c(c1)OCO2 [N-phenethylbenzo[d][1,3]dioxole-5-carboxamide] | 11.3% | 0.04 mM | 92.0% | 1.0 mM | 0.01 mM | – | – | – | EC50 (T1R1/T1R3 receptor [1]; [10]): 0.03 mM; EC50 (T1R1/T1R3 receptor [1]; [4]): 0.04 ± 0.01 mM; EC50 (T1R1/T1R3 receptor [1]; [13]): > 1 mM; EC50 (T1R1/T1R3 receptor [1]; [8]): 0.12 ± 0.07 mM; EC50 (T1R1/T1R3 receptor [1]; [9]): 0.12 mM
16 | O=C(NCCc1ccccc1)c1cccnc1 [N-phenethylnicotinamide] | 83.6% | 0.35 mM | 149.5% | 0.1 mM | 0.03 mM | – | – | – | EC50 (T1R1/T1R3 receptor [1]; [10]): 0.22 mM; EC50 (T1R1/T1R3 receptor [1]; [4]): 0.35 ± 0.1 mM; EC50 (T1R1/T1R3 receptor [1]; [8]): 0.37 ± 0.02 mM; EC50 (T1R1/T1R3 receptor [1]; [9]): 0.37 mM
17 | CCOC(=O)NC(=O)C(c1ccccc1)c1ccccc1 [Ro 01-6128, reference compound] | 74.8% | – | 199.7% | 0.3 mM | 0.01 mM | – | – | – | Activity (T1R1/T1R3 receptor [1]): active
